Data on two compounds can be found in patent publication US12435087B2, “Modulators of DCN-1 and methods of use thereof” (Cellarity, Inc., priority 2023, dated 2025).

Like-named read-outs stand apart in the source and are kept apart here.

The IC50 is the concentration at which inhibition is half-maximal. What is called Ki is the dissociation constant of the complex between target and ligand, obtained from inhibition or displacement. The low end stands for a stronger hold on the target, the high end for a looser hold on the target. Usually kinact stands for the rate constant of inactivation at saturating inhibitor. A word on the kinact/KI: it is the second-order rate constant of inactivation.

Test [1] concerns the target T1, DCN1 (DCUND1) protein PONY domain (Homo sapiens (Human), UniProt Q96GG9). The experiment in a line: TR-FRET assay (binding to DCN-1, displacement of FAM-labeled probe). In short, it runs like this: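 Compounds read at 1, 5 and 24 h, 0.1% final DMSO, by TR-FRET between terbium-streptavidin on biotinylated DCN1 PONY domain (E. coli) and a FAM-tagged non-covalent inhibitor probe. Two setups used, 5 nM protein with 20 nM labelled probe, or 0.31 nM protein with 100 nM labelled plus 800 nM unlabelled probe; buffer had TritonX and 200 mM NaCl. % activity relative to high (with probe) and low (without probe) controls.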
(TR-FRET usually uses a lanthanide donor and a delayed reading to cut background.)

In test [2] the target is T1, DCN1 (DCUND1) protein PONY domain. Description: Off-rate measurement of reversible covalent molecules (jump dilution TR-FRET with Cy5 probe). Particulars: binding mode from off-rate measurement. On the procedure: A TR-FRET assay was performed to classify the compounds as an irreversible covalent binder, a reversible covalent binder or a reversible binder.
An assay to measure the off-rate of reversible covalent molecules was developed. A typical covalent compound is assumed to stay bound to a protein for at least the life of that protein in the cell. In reality, there is a range of how long a covalent compounds remains bound before a reverse reaction takes place. Thus, some covalent bonds can be labeled as reversible as their reverse reaction takes place in a measurable amount of time under physiological conditions. The assay capitalizes on the range of covalent binders by using a high affinity covalent binder as a probe to displace the more reversible binders in an adaptation of the jump dilution method.
In this version of the jump dilution method, the increase in covalent probe binding over time was measured through a TR-FRET reaction between the covalent probe and the biotinylated target protein.
The recombinant form of the DCN1 (DCUND1) protein PONY domain was produced using an E. coli expression system at Viva Biotech (China). The DCN1 protein was biotinylated (EZ sulfo-NHS-LC-biotin; Thermofisher) for labeling with streptavidin terbium (Tb) cryptate in the reaction. This biotinylated protein was used in two forms of the TR-FRET assay as described below.
The off-rate measurement is executed in two steps based on the jump dilution method. […] The greatest dilution allowed within the constraints of the assay was chosen. These factors allow a competitive advantage for the covalent probe to replace the test compound when that compound releases from the target protein. The actual measure is the rate of increased TR-FRET signal as the covalent probe replaces the test compound over time. […] The resulting time dependent curve of the TR-FRET signal is fit to the following equation: Y=Y0+(Plateau−Y0)*(1−exp(−K*x))
K is the rate constant (1/unit of time). The residence time is defined as the inverse of K, the rate constant. The half-life is calculated as ln(2)/K.

The target of test [3] is DCN2 (DCUND2) protein PONY domain (Homo sapiens (Human), UniProt Q6PH85). The experiment in a line: DCN2 TR-FRET assay, measurement of Kinact/KI. It counts as binding. On the procedure:
A TR-FRET Assay was performed to evaluate the ability of the compounds to bind DCN-2. The time resolved—Forster's resonance energy transfer (TR-FRET) assay was designed following the protocol established in (Scott et al., Nat Chem Biol. 2017 August; 13(8): 850-857). A recombinant form of the DCN2 (DCUND2) protein PONY domain was produced using an E. coli expression system at Viva Biotech China. The DCN2 protein was biotinylated (EZ sulfo-NHS-LC-biotin; Thermofisher) for labeling with 2.5 nM streptavidin terbium (Tb) cryptate in the reaction. The probe was changed to a non-covalent DCN1 inhibitor labeled with carboxyfluorescein (FAM; Zhou el al., Nat Commun. 2017; 8: 1150). Buffer conditions were modified to enhance protein stability by replacing TritonX with 0.05% Tween20 and increasing NaCl to 200 mM. […] The Kinact and KI measurements were taken to allow for continuous reads over 24 hrs. Plates were read every 5 min up to 1 hr, every 15 min up to 5 hr, and every hour up to 10 hours. Kinact and KI were calculated based on the following equations (Krippendorff B F, et al. Mechanism-based inhibition: deriving K(I) and k(inact) directly from time-dependent IC(50) values. J BiomolScreen. 2009; Mons E et al. A Comprehensive Guide for Assessing Covalent Inhibition in Enzymatic Assays Illustrated with Kinetic Simulations. […] The Kinact and KI values could be estimated from the tight curves of the IC50 values over time. [formula]

Where [4] appears, read: 24 hr after treatment with compound, read-out: TR FRET IC50 24 hr.

T1 sequence (Q96GG9 60-248): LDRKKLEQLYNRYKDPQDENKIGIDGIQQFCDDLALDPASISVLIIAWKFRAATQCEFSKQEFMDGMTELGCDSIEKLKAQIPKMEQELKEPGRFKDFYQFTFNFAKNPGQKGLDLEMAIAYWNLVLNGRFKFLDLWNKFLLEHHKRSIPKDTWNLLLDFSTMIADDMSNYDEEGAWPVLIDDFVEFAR
Sequence of DCN2 (DCUND2) protein PONY domain (Q6PH85 60-248): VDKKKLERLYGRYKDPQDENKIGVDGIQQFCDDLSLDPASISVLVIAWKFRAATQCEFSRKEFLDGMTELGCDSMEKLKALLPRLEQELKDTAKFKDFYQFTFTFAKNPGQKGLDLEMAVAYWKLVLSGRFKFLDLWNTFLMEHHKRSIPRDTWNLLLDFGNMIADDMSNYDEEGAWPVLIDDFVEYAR

As for `C=C(CN1CCOCC1)C(=O)Nc1cccc([C@@H]2c3c(C)nn(-c4ccccc4)c3N(CC)C(=O)[C@H]2NC(=O)c2cccc(C(F)(F)F)c2)c1` [Compound I-2, N-((4R,5S)-7-ethyl-3-methyl-4-(3-(2-(morpholinomethyl)acrylamido)phenyl)-6-oxo-1-phenyl-4,5,6,7-tetrahydro-1H-pyrazolo[3,4-b]pyridin-5-yl)-3-(trifluoromethyl)benzamide], in test [1] (setting [4]), the IC50 was no more than 200 nM. In addition, in test [1] (read-out: TR FRET IC50 1 hr, 1 hr after treatment with compound), the IC50 is no more than 200 nM. Besides, the Category result in test [2] was “irreversible”. In addition, in test [3], the Ki is greater than 0.5 nM, the kinact lay in the range of 0.00333 to 0.005 s⁻¹ and the kinact/KI was in the range of 3.33e+06 to 8.33e+06 M⁻¹ s⁻¹.

For `C/C=C(\CN1CCN(C2COC2)CC1)C(=O)Nc1cccc([C@@H]2c3cnn(-c4ccccc4)c3N(CC)C(=O)[C@H]2NC(=O)c2csc(C(F)(F)F)n2)c1` [Compound I-234, N-((4R,5S)-7-ethyl-4-(3-((E)-2-((4-(oxetan-3-yl)piperazin-1-yl)methyl)but-2-enamido)phenyl)-6-oxo-1-phenyl-4,5,6,7-tetrahydro-1H-pyrazolo[3,4-b]pyridin-5-yl)-2-(trifluoromethyl)thiazole-4-carboxamide], in test [1] (setting [4]), the IC50 was no more than 200 nM. Besides, in test [1] (TR FRET IC50 1 hr (nM), 1 hr after treatment with compound), the IC50 is no more than 200 nM. For the same compound, the Category entry in test [2] is “irreversible”. In addition, in test [3], the Ki is greater than 0.5 nM, the kinact lay within 0.00167 to 0.00333 s⁻¹ and the kinact/KI lay within 167000 to 3.33e+06 M⁻¹ s⁻¹.
